Reference: US20220402883A1, “COMPOUNDS AND METHODS FOR MODULATING RNA FUNCTION” (Arrakis Therapeutics, Inc., priority 2016, published 2022)

Assays:
[1] = tested on: RNA3WJ_1.0.0_5IB_3FAM (cis 3WJ with one unpaired nucleotide); assay: Fluorescence quenching binding assay (FAM / Iowa Black); settings: two concentration points
Experimental: (§1) This assay will be used to test binding of compounds for RNA three way junction (such as a 38 nt construct). This is a fluorescence quenching assay utilizing FAM as fluorescence tag and Iowa Black as quencher. Tags are attached at the 3′ and 5′ end, respectively. Stable formation of MW upon compound binding would lead to quenching of the FAM fluorescence due to close proximity of the Iowa Black tag. Assay readout: FAM (485-520 nm) Fluorescence Intensity.
(§2) Assay sample buffer used: 10 mM CacoK pH 7.2, 30 mM NaCl. Buffer preparation in Dnase/Rnase Free distilled water (Gibco Life Technologies).
(§3) Dilute the RNA 1:10 (final 10 μM) in Assay Buffer.
(§4) Heat up the diluted RNA up to 90° C. for 5 min (sealed Eppendorf Tube).
(§5) Cool down the RNA probe slowly to RT.
(§6) Dilute the compounds to 800 μM in DMSO (Assay: 8 μM).
(§7) Final concentrations in the sample: 1-10 μM RNA, 8 μM compound, 1% DMSO
(§8) Pipet 25 μL Sample Solution into Greiner cat #784076, black, 384
(§9) Measure the 96 plate with the LightCycler480 (Channel: 485/520 nm).
(§10) The fluorescence quenching experiment was repeated for compounds Ark0000013 and Ark0000014 to measure binding with:
A) RNA3WJ_1.0.0_5IB_3FAM (cis 3WJ with one unpaired nucleotide)
(§11) Both cmpds were tested at two concentration points in the fluorescence quenching assays to assess effect upon RNA constructs utilized in the study. […]

[2] = tested on: Split3WJ.1_up_5IB+Split3WJ.1_down_3FAM (trans 3WJ as 1:1 mix); assay: as above; settings: two concentration points
Experimental: as §1, §2, §3, §4, §5, §6, §7, §8, §9, §10
B) Split3WJ.1_up_5IB+Split3WJ.1_down_3FAM (trans 3WJ as 1:1 mix)
as §11

[3] = tested on: Split3WJ.2 up_5IB+Split3WJ.2_down_3FAM (trans 3WJ as 1:1 mix); assay: as above; settings: two concentration points
Experimental: as §1, §2, §3, §4, §5, §6, §7, §8, §9, §10
C) Split3WJ.2 up_5IB+Split3WJ.2_down_3FAM (trans 3WJ as 1:1 mix)
as §11

[4] = tested on: RNA3WJ_0.0.0_5IB_3FAM (3WJ_0.0.0_5IB_3FAM RNA construct); assay: Thermal shift binding assay
Text: (§12) Purpose: Test binding of compounds for RNA three way junction (for example, a construct of 38 nt). Thermal shift assay based on established fluorescence quenching assay utilizing FAM as fluorescence tag and Iowa Black as quencher. Tags were attached at the 3′ and 5′ end, respectively. Stable formation of 3WJ upon compound binding would lead to quenching of the FAM fluorescence due to close proximity of the Iowa Black tag. Thermal unfolding leads to increase of fluorescence emission. Assay readout: FAM (465-510 nm) Thermal Shift.
as §2, §3, §4, §5
(§13) Dilute the compounds to 800 μM in DMSO (Assay: 8 μM). […]
(§14) Pipet 20 μL Sample Solution into Roche, Light Cycler480 Multiwell Plate96, white, REF 04729692001.
(§15) Measure the 96 plate with the LightCycler480 (Channel: 480/510 nm; Temperature: 41-91° C.).
(§16) Analyse measurement-data with the MeltingCurveGenotyping Mode.
(§17) Settings: Acquisition mode: continuous; Ramp rate: 0.1° C./sec; Acquisition: 6° C.
(§18) Curves are fitted with raw and normalized data.
(§19) Melting curves analysis show melting temperature (Tm) of ˜51° C. Range of RNA concentrations was tested and assay window was determined (conc. range of 0.5-1 μM yields best results). The choice of buffer also affected the Tm. RNA constructs were tested under different buffer conditions (especially in presence of salt) in the thermal shift assay. […] CacoK with 30 mM salt at 1 μM RNA conc. was used to assess compound effects on 3WJ stability. […] These conditions were used for screening test compounds.

RNA3WJ_3.0.0_5IB_3FAM = assay: Thermal shift binding assay; settings: 1 μM RNA, 8 μM compound, 10 mM CacoK pH 7.2, 30 mM NaCl
Text: as §12, §2, §3, §4, §5, §13, §14, §15, §16, §17, §18, §19

[5] = tested on: RNA3WJ_1.0.0_5IB_3FAM (cis 3WJ with one unpaired nucleotide); assay: Thermal shift binding assay; settings: 1 μM RNA, 8 μM compound, 10 mM CacoK pH 7.2, 30 mM NaCl
Text: as §12, §2, §3, §4, §5, §6
(§20) Final concentrations in the sample: 1 μM RNA, 8 μM compound, 1% DMSO
as §14, §15, §16, §17, §18, §19
(§21) Compounds Ark0000013 and Ark0000014 were also tested in the thermal shift assay against three RNA 3WJ constructs, A) RNA3WJ_1.0.0_5IB_3FAM (cis 3WJ with one unpaired nucleotide); B) Split3WJ.1_up_5IB+Split3WJ.1_down_3FAM (trans 3WJ as 1:1 mix); and C) Split3WJ.2_up_5IB+Split3WJ.2_down_3FAM (trans 3WJ as 1:1 mix).

[6] = tested on: Split3WJ.1_up_5IB+Split3WJ.1_down_3FAM (trans 3WJ as 1:1 mix; Split3WJ_1); assay: Thermal shift binding assay; settings: 1 μM RNA, 8 μM compound, 10 mM CacoK pH 7.2, 30 mM NaCl
Text: as §12, §2, §3, §4, §5, §6, §20, §14, §15, §16, §17, §18, §19, §21

[7] = tested on: Split3WJ.2_up_5IB+Split3WJ.2_down_3FAM (trans 3WJ as 1:1 mix; Split3WJ_2); assay: Thermal shift binding assay; settings: 1 μM RNA, 8 μM compound, 10 mM CacoK pH 7.2, 30 mM NaCl
Text: as §12, §2, §3, §4, §5, §6, §20, §14, §15, §16, §17, §18, §19, §21

RNA3WJ_1.1.0_5IB_3FAM = assay: Thermal shift binding assay; settings: 1 μM RNA, 8 μM compound, 10 mM CacoK pH 7.2, 30 mM NaCl
Text: as §12, §2, §3, §4, §5, §6, §20, §14, §15, §16, §17, §18, §19

RNA3WJ_1.1.1_5IB_3FAM = assay: Thermal shift binding assay; settings: 1 μM RNA, 8 μM compound, 10 mM CacoK pH 7.2, 30 mM NaCl
Text: as §12, §2, §3, §4, §5, §6, §20, §14, §15, §16, §17, §18, §19

RNA3WJ_2.0.0_5IB_3FAM = assay: Thermal shift binding assay; settings: 1 μM RNA, 8 μM compound, 10 mM CacoK pH 7.2, 30 mM NaCl
Text: as §12, §2, §3, §4, §5, §6, §20, §14, §15, §16, §17, §18, §19

RNA3WJ_2.1.0_5IB_3FAM = assay: Thermal shift binding assay; settings: 1 μM RNA, 8 μM compound, 10 mM CacoK pH 7.2, 30 mM NaCl
Text: as §12, §2, §3, §4, §5, §6, §20, §14, §15, §16, §17, §18, §19

[8] = 1 μM RNA, 8 μM compound, 10 mM CacoK pH 7.2, 30 mM NaCl

NCCCCCCCNC(=O)c1ccc2c(c1)C1c3cc(C(=O)NCCCCCCCN)ccc3C2c2ccc(C(=O)NCCCCCCCN)cc21 [Ark000014, N^2,N^7,N^15-tris(7-aminoheptyl)-9,10-dihydro-9,10-[1,2]benzenoanthracene-2,7,15-tricarboxamide]
fluorescence quenching effect (FAM fluorescence signal) [1]: smaller effect
fluorescence quenching effect (FAM fluorescence signal) [2]: smaller effect
fluorescence quenching effect (FAM fluorescence signal) [3]: Split3WJ_2 shows larger effect
Melting temp + cmpd [4, 8]: 61.5 °C
Temp. Shift [4, 8]: 1.6 °C
Melt. Temp. with cmpd ([4]; RNA sequence 3WJ_0.0.0_5IB_FAM, melting temperature in presence of compound): 61.5 °C
Shift melt. Temp. ([4]; RNA sequence 3WJ_0.0.0_5IB_FAM, with cmpd minus without cmpd): +1.6 °C
Melting temp + cmpd (RNA3WJ_3.0.0_5IB_3FAM): 63.9 °C
Temp. Shift (RNA3WJ_3.0.0_5IB_3FAM): 1.9 °C
Melting temp + cmpd [5]: 68.4 °C
Temp. Shift [5]: ~3 °C
Melting temp + cmpd ([5]; listed as Ark0000014): 68.1 °C
Temp. Shift ([5]; listed as Ark0000014): 2.5 °C
Melting temp + cmpd [6]: 38.8 °C
Temp. Shift [6]: ~1 °C
Melting temp + cmpd ([6]; listed as Ark0000014): 37.8 °C
Temp. Shift ([6]; listed as Ark0000014): 0.3 °C
Melting temp + cmpd [7]: 44.7 °C
Temp. Shift [7]: ~1 °C
Melting temp + cmpd ([7]; listed as Ark0000014): 44.0 °C
Temp. Shift ([7]; listed as Ark0000014): −0.3 °C
Melting temp + cmpd (RNA3WJ_1.1.0_5IB_3FAM): 65.1 °C
Temp. Shift (RNA3WJ_1.1.0_5IB_3FAM): 1.8 °C
Melting temp + cmpd (RNA3WJ_1.1.1_5IB_3FAM): 64.3 °C
Temp. Shift (RNA3WJ_1.1.1_5IB_3FAM): 2.1 °C
Melting temp + cmpd (RNA3WJ_2.0.0_5IB_3FAM): 64.4 °C
Temp. Shift (RNA3WJ_2.0.0_5IB_3FAM): 2.2 °C
Melting temp + cmpd (RNA3WJ_2.1.0_5IB_3FAM): 42.0 °C
Temp. Shift (RNA3WJ_2.1.0_5IB_3FAM): 0.1 °C
